Source: BindingDB's records for patent US9796706 (Imago Pharmaceuticals, 2017)

How the values were obtained:
Assay in all cases: HTRF Assay
[1] = target: Mitogen-activated protein kinase 9 (Homo sapiens, UniProt P45984)
Description: (§1) The aJNK solution (20 μl/well) was added to the plate and the plate was shaken. The enzyme was incubated with the compound at RT for 10 min.(5) ATP/substrate solution preparation: ATP and substrate stocks were thawed on ice. […] The ATP/substrate (20 μl/well) was added to the plate and the plate was shaken. The plate was incubated at RT for 15 min. Note: In an exemplary assay, the final ATP concentration was about 1 mM.(6) EDTA preparation: 30 mM EDTA was prepared using 0.5M EDTA stock and assay buffer #1. The EDTA (10 μl/well) was added to the plate to quench the enzyme reaction and the plate was shaken well.(7) Detection reagent preparation: Eu-63 and SA-XL stocks were thawed on ice. […] The Eu-63/SA-XL solution (20 μl/well) was added to the plate and the plate was shaken. The plate was incubated at RT for 1 hr before reading the plate on LJL using ratiometric method named HTRF.

[2] = target: Mitogen-activated protein kinase 8 (Homo sapiens, UniProt P45983)
Description: as §1

[3] = target: Mitogen-activated protein kinase 10 (Homo sapiens, UniProt P53779)
Description: as §1

Chain of Mitogen-activated protein kinase 10 (P53779 whole entry): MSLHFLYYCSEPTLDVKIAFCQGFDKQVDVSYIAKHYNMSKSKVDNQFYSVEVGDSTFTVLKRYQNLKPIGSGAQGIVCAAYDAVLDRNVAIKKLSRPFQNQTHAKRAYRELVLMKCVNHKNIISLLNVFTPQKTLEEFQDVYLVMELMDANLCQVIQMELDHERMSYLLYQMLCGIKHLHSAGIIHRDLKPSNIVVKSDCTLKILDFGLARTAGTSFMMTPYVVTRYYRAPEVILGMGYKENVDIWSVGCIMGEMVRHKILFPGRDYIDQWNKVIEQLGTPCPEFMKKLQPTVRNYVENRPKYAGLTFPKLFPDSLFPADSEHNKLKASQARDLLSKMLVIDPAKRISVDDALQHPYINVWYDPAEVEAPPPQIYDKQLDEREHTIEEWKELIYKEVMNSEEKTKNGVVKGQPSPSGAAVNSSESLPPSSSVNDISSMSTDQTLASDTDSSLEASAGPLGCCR
Chain of Mitogen-activated protein kinase 8 (P45983 whole entry): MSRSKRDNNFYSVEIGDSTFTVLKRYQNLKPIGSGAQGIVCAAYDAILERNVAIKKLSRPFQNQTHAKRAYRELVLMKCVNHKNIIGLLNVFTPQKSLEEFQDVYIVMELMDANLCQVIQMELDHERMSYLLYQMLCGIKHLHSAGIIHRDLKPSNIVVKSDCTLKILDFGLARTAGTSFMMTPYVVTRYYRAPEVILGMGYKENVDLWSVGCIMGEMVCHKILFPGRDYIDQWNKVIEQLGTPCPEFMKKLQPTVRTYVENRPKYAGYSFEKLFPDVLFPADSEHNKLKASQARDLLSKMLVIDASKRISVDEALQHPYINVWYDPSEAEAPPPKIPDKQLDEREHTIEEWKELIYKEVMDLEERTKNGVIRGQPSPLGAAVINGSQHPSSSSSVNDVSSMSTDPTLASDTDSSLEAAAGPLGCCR
Chain of Mitogen-activated protein kinase 9 (P45984 whole entry): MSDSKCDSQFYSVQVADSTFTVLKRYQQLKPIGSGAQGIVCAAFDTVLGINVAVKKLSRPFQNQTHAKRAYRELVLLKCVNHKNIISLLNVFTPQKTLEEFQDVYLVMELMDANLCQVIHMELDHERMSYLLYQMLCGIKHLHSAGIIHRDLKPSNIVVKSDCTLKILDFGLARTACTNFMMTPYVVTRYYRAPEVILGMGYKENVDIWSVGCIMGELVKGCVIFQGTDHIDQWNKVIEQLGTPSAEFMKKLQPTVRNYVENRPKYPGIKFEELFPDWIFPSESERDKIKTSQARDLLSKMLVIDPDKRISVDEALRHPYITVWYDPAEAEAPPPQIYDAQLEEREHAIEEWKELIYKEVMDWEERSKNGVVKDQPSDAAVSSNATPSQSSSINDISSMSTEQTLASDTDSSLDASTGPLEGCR

Row | IC50 [1] | IC50 [2] | IC50 [3] | SMILES
1 | in the range around 5.05 µM | in the range around 5.05 µM | in the range around 5.05 µM | CN(C)CCN(C(=O)Cn1c(=O)ccc2cc(C(F)(F)F)ccc21)c1scc(Cl)c1-c1nc[nH]n1 [US9796706, Compound 158]
2 | in the range around 5.05 µM | in the range around 5.05 µM | in the range around 5.05 µM | O=C(Cn1c(=O)ccc2cc(C(F)(F)F)ccc21)N(CCCN1CCCC1)c1scc(Cl)c1-c1nc[nH]n1 [US9796706, Compound 162]
